From US20230002408A1, “HETEROARYLDIHYDROPYRIMIDINE DERIVATIVES AND METHODS OF TREATING HEPATITIS B INFECTIONS” (JANSSEN PHARMACEUTICA NV, priority 2019, published 2023)
Like-named read-outs stand apart in the source and are kept apart here.

Legend:
[1] = system: HBV; test: Anti-viral assay in HepG2.2.15 cells: HBV DNA in culture medium by qPCR; type: cell-based; conditions: Hepatitis B virus, HepG2.2.15, 144 h
Description: (§1) HepG2.2.15 (the HepG2.2.15 cell line can be produced by transfection of the HepG2 cell line as described in Sells, Chen, and Acs 1987 (Proc. Natl. Acad. Sci. USA 84: 1005-1009), and the HepG2 cell line is available from ATCC® under number HB-8065™).
(§2) HepG2.2.15 cells were plated into 96-well plate in 2% FBS culture medium at the density of 40,000 cells/well and 5,000 cells/well for HBV inhibitory activity and cytotoxicity determination, respectively. After incubation at 37° C., 5% CO2 overnight, cells were treated with medium containing compounds for 6 days with medium and compounds refreshed after 3 days of treatment. Each compound was tested in a 1:3 serial dilutions at 8 different concentrations in triplicate. The highest concentration of the compounds was 10 uM or 1 uM for anti-HBV activity assay and 100 uM for cytotoxicity determination. Cell viability was determined by CCK-8 assay. After 6 days of compounds treatment, 20 μl CCK-8 reagents were added to each well of cytotoxicity assay plates. Cell plates were incubated at 37° C., 5% CO2 for 2.5 h. The absorbance at 450 nm wavelength and the absorbance at 630 nm wavelength as reference was measured.
The change of HBV DNA level induced by the compounds was assessed by quantitative real-time polymerase chain reaction (qPCR). Briefly, the HBV DNA in the culture medium was extracted using QlAamp 96 DNA Blood Kit according to the manual and then quantified by real-time PCR assay using the primers and probe in the table 1 below.
(§3) EC50 and CC50 values are calculated by the GRAPHPAD PRISM software.

[2] = Cytotoxicity determination in HepG2.2.15 cells (CCK-8 cell viability); type: cell-based; conditions: human, 6 days treatment, CCK-8, highest concentration 100 uM
Description: as §1, §2, §3

[3] = HepG2.2.15 cells, 6 days treatment, HBV DNA in culture medium by real-time PCR, read-out: EC50

Row | Structure (SMILES) | EC50 [1, 3] | CC50 at 6 days [2] | EC50 [1]
1 | COC(=O)C1=C(CN2CCO[C@@H]3CN(C(=O)OC(C)(C)C)C[C@@H]32)NC(c2ncc(F)cc2F)=N[C@@H]1c1ccc(F)cc1Cl (single isomer, unassigned) [Reference 1H, (4aS*,7aR*)-tert-butyl 4-(((S*)-6-(2-chloro-4-fluorophenyl)-2-(3,5-difluoropyridin-2-yl)-5-(methoxycarbonyl)-3,6-dihydropyrimidin-4-yl)methyl)hexahydropyrrolo[3,4-b][1,4]oxazine-6(2H)-carboxylate, reference compound] | > 1000 nM | 8700 nM | 
2 | CCOC(=O)C1=C(CN2CCO[C@@H]3CN(C(C)=O)C[C@@H]32)NC(c2nccs2)=N[C@H]1c1cccc(F)c1C (racemic) [Compound I-4E, (S)-ethyl 6-(((cis)-6-acetylhexahydropyrrolo[3,4-b][1,4]oxazin-4(4aH)-yl)methyl)-4-(3-fluoro-2-methylphenyl)-2-(thiazol-2-yl)-1,4-dihydropyrimidine-5-carboxylate] |  | 48300 nM | 7.1 nM
3 | COC(=O)C1=C(CN2CCO[C@H]3CN(C(=O)OC(C)(C)C)C[C@H]32)NC(c2ncc(F)cc2F)=N[C@@H]1c1ccc(F)cc1Cl (single isomer, unassigned) [Reference 1F, tert-butyl (4aR*,7aS*)-4-4(S*)-6-(2-chloro-4-fluorophenyl)-2-(3,5-difluoropyridin-2-yl)-5-(methoxycarbonyl)-3,6-dihydropyrimidin-4-yl)methyphexahydropyrrolo[3,4-b][1,4]oxazine-6(2H)-carboxylate, reference compound] | 87 nM | 5800 nM | 
4 | CCOC(=O)C1=C(CN2CCO[C@H]3CN(C(=O)C(C)(C)C(=O)O)C[C@H]32)NC(c2nccs2)=N[C@H]1c1cccc(F)c1C (relative stereo) [Compound I-12A, 3-((4aR*,7aS*)-4-4(S)-5-(ethoxycarbonyl)-6-(3-fluoro-2-methylphenyl)-2-(thiazol-2-yl)-3,6-dihydropyrimidin-4-yl)methyl)hexahydropyrrolo[3,4-b][1,4]oxazin-6(2H)-yl)-2,2-dimethyl-3-oxopropanoic acid] |  | > 100000 nM | 310 nM
5 | CCOC(=O)C1=C(CN2CCO[C@H]3CN(CC(C)(C)C(=O)O)C(=O)[C@H]32)NC(c2nccs2)=N[C@H]1c1cccc(F)c1C (single isomer, unassigned) [Compound I-3B, (S)-3-((4aS*,7aS*)-4-((5-(Ethoxycarbonyl)-6-(3-fluoro-2-methylphenyl)-2-(thiazol-2-yl)-3,6-dihydropyrimidin-4-yl)methyl)-5-oxohexahydropyrrolo[3,4-b][1,4]oxazin-6(2H)-yl)-2,2-dimethylpropanoic acid] | 5.2 nM | 60200 nM | 
6 | CCOC(=O)C1=C(CN2CCO[C@H]3CN(CC(C)(C)C(=O)O)C[C@H]32)NC(c2nccs2)=N[C@H]1c1cccc(F)c1Cl (single isomer, unassigned) [Compound I-13A, 3-((4aR*,7aS*)-4-0(R*)-6-(2-Chloro-3-fluorophenyl)-5-(ethoxycarbonyl)-2-(thiazol-2-yl)-3,6-dihydropyrimidin-4-yl)methyl)hexahydropyrrolo[3,4-b][1,4]oxazin-6(2H)-yl)-2,2-dimethylpropanoic acid] | 13 nM | 67100 nM | 
7 | COC(=O)C1=C(CN2CCO[C@H]3CN(CC(C)(C)C(=O)O)C(=O)[C@H]32)NC(c2nccs2)=N[C@H]1c1ccc(F)c(F)c1Cl (single isomer, unassigned) [Compound I-22A, 3-((4aS*,7aS*)-4-4(R*)-6-(2-chloro-3,4-difluorophenyl)-5-(methoxycarbonyl)-2-(thiazol-2-yl)-3,6-dihydropyrimidin-4-yl)methyl)-5-oxohexahydropyrrolo[3,4-b][1,4]oxazin-6(2H)-yl)-2,2-dimethylpropanoic acid] | 0.5 nM | 44300 nM | 
8 | CCOC(=O)C1=C(CN2CCO[C@H]3CN(CC(C)(C)C(=O)O)C(=O)[C@H]32)NC(c2nccs2)=N[C@H]1c1cccc(F)c1Cl (single isomer, unassigned) [Compound I-18A, 3-((4aS*,7aS*)-4-4(R*)-6-(2-chloro-3-fluorophenyl)-5-(ethoxycarbonyl)-2-(thiazol-2-yl)-3,6-dihydropyrimidin-4-yl)methyl)-5-oxohexahydropyrrolo[3,4-b][1,4]oxazin-6(2H)-yl)-2,2-dimethylpropanoic acid] | 7 nM | 62400 nM | 
9 | COC(=O)C1=C(CN2CCO[C@H]3CN(CC(C)(C)C(=O)O)C[C@H]32)NC(c2nccs2)=N[C@H]1c1cccc(F)c1Cl (single isomer, unassigned) [Compound I-16A, 3-((4aR*,7aS*)-4-0(R*)-6-(2-Chloro-3-fluorophenyl)-5-(methoxycarbonyl)-2-(thiazol-2-yl)-3,6-dihydropyrimidin-4-yl)methyl)hexahydropyrrolo[3,4-b][1,4]oxazin-6(2H)-yl)-2,2-dimethylpropanoic acid] | 15 nM | 92800 nM | 
10 | CCOC(=O)C1=C(CN2CCO[C@@H]3CN(C4CCC(C(=O)O)C4)C[C@@H]32)NC(c2nccs2)=N[C@H]1c1cccc(F)c1C (stereo partly shown) [Compound I-5] |  | 40600 nM | 86 nM
11 | CCOC(=O)C1=C(CN2CCO[C@H]3CN(CC(C)(C)C(=O)O)C(=O)[C@H]32)NC(c2nccs2)=N[C@H]1c1ccc(F)c(F)c1Cl (single isomer, unassigned) [Compound I-23A, 3-((4aS*,7aS*)-4-4(R*)-6-(2-chloro-3,4-difluorophenyl)-5-(ethoxycarbonyl)-2-(thiazol-2-yl)-3,6-dihydropyrimidin-4-yl)methyl)-5-oxohexahydropyrrolo[3,4-b][1,4]oxazin-6(2H)-yl)-2,2-dimethylpropanoic acid] | 0.5 nM | 45000 nM | 
12 | COC(=O)C1=C(CN2CCO[C@H]3CN(CC(C)(C)C(=O)O)C(=O)[C@H]32)NC(c2nccs2)=N[C@H]1c1ccc(F)c(F)c1C (single isomer, unassigned) [Compound I-17B, 3-((4aS*,7aS*)-4-(((S*)-6-(3,4-difluoro-2-methylphenyl)-5-(methoxycarbonyl)-2-(thiazol-2-yl)-3,6-dihydropyrimidin-4-yl)methyl)-5-oxohexahydropyrrolo[3,4-b][1,4]oxazin-6(2H)-yl)-2,2-dimethylpropanoic acid] | 2.6 nM | 41700 nM | 
13 | CCOC(=O)C1=C(CN2CCO[C@H]3CCN(CC(C)(C)C(=O)O)C[C@H]32)NC(c2nccs2)=N[C@H]1c1cccc(F)c1C (single isomer, unassigned) [Compound I-10A, 3-((4aR*,8aS*)-4-(((S)-5-(Ethoxycarbonyl)-6-(3-fluoro-2-methylphenyl)-2-(thiazol-2-yl)-3,6-dihydropyrimidin-4-yl)methyl)hexahydro-2H-pyrido[4,3-b][1,4]oxazin-6(7H)-yl)-2,2-dimethylpropanoic acid] | 28 nM | 94500 nM | 
14 | COC(=O)C1=C(CN2CCO[C@H]3CN(CC(C)(C)C(=O)O)C[C@H]32)NC(c2nccs2)=N[C@H]1c1cccc(F)c1C (single isomer, unassigned) [Compound I-14A, 3-((4aR*,7aS*)-4-0(S*)-6-(3-fluoro-2-methylphenyl)-5-(methoxycarbonyl)-2-(thiazol-2-yl)-3,6-dihydropyrimidin-4-yl)methyl)hexahydropyrrolo[3,4-b][1,4]oxazin-6(2H)-yl)-2,2-dimethylpropanoic acid] | 33 nM | > 100000 nM | 
